From publication PMC11990524, “Design and Synthesis of Novel 6-(Substituted phenyl)-[1,3]dioxolo[4′,5′:4,5]benzo[1,2-d]thiazole Compounds as Tyrosinase Inhibitors: In Vitro and In Vivo Insights” (Molecules, 2025)
Read-outs that look alike come from different tables or passages of the source.

Assays:
mushroom tyrosinase = mushroom tyrosinase (Agaricus bisporus, UniProt C7FF04); experiment: Mushroom tyrosinase inhibitory activity assay (L-dopa or L-tyrosine as substrate); format: biochemical; conditions: 50 μM, read-out: Inhibition (%, Mean ± SEM) at 50 μM (converted)
Method: In the inhibition experiments, L-dopa and L-tyrosine were used as enzyme substrates.
The plate was incubated at 37 °C for 30 min, and absorbance of dopachrome formation was recorded spectrophotometrically at 475 nm using a VersaMax® Elisa (VE) microplate reader (Molecular Devices, San Jose, CA, USA) to determine tyrosinase inhibition activity. A VE microplate reader was used in all subsequent experiments to measure optical density. All experiments were carried out independently three times.

[1] = ABTS radical scavenging assay; conditions: 100 μM
Method: The ABTS^+ radical solution was obtained by mixing ABTS and potassium persulfate, an oxidizing reagent, and test samples (1–13 and Trolox [positive control]; final concentration: 100 μM) were added to determine their ABTS^+ radical scavenging ability by measuring the optical density at 732 nm.
To prepare ABTS^•+ stock solution, equal amounts of ABTS (14 mM aqueous solution) and K2S2O8 (4.9 mM aqueous solution) were mixed and stored in the dark at 18 °C for 15 h. The prepared ABTS^•+ solution was diluted in ethanol to adjust the absorbance to 0.7 ± 0.01 at 732 nm. The test samples (Trolox [positive control] and compounds 1–13) were dissolved in a cosolvent of ethanol and DMSO (10:1 [v/v]). The adjusted ABTS^•+ solution (90 μL) and test sample (10 μL) were added to each well of a 96-well plate, and the plate was stored in a dark place at 18 °C for 2 min. The optical density was measured at 732 nm every min for 10 min. The test sample solutions were tested at a final concentration of 100 μM. The percentage of radical scavenging activity was calculated as follows: % Radical scavenging activity = 100 × [(Absc − Abst)/Absc], where Abst and Absc are optical densities of the test sample and control, respectively.

[2] = DPPH radical scavenging assay; conditions: 500 μM; 30 min in the dark
Method: DPPH radical scavenging activity was determined by mixing the DPPH solution with compounds 1–13, leaving it in the dark at 20 °C for 30 min, and measuring the optical density at 517 nm. Ascorbic acid (AA) was used as a positive control to compare the scavenging activity. All test samples were used at 500 μM.
An aliquot (20 μL) of test sample (compounds 1–13 and ascorbic acid [positive control]; 5 mM) in DMSO and 180 μL DPPH solution (0.2 mM) in methanol were mixed in each well of a 96-well plate. The mixed solution was kept in the dark at 18 °C for 30 min. A VE microplate reader was used to measure the optical density of each well at 517 nm.

Sequence of mushroom tyrosinase (C7FF04 2-392): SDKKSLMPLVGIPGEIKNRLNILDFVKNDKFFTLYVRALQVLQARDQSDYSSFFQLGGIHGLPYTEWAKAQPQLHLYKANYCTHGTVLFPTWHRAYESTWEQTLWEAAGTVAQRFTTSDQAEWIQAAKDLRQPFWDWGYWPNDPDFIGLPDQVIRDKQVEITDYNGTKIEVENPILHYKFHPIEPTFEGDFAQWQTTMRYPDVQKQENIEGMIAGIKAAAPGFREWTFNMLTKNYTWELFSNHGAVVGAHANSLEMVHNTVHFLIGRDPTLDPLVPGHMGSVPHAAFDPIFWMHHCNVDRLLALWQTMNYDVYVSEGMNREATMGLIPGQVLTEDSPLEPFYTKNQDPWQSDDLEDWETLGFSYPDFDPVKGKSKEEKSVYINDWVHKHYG

| Compound | inhibition at 50 µM (mushroom tyrosinase; substrate L-dopa) [%] | inhibition at 50 µM (mushroom tyrosinase; substrate L-tyrosine) [%] | ABTS^+ radical scavenging activity (inhibition rate) [1] [%] | DPPH radical scavenging (inhibition) [2] [%] |
| --- | --- | --- | --- | --- |
| COc1cc(-c2nc3cc4c(cc3s2)OCO4)cc(OC)c1OC [Compound 13, 6-(3,4,5-Trimethoxyphenyl)-[1,3]dioxolo[4′,5′:4,5]benzo[1,2-d]thiazole] | 5 | 16.6 | – | – |
| COc1ccc(-c2nc3cc4c(cc3s2)OCO4)c(OC)c1 [Compound 12, 6-(2,4-Dimethoxyphenyl)-[1,3]dioxolo[4′,5′:4,5]benzo[1,2-d]thiazole] | 32.8 | 10.6 | – | – |
| COc1cc(-c2nc3cc4c(cc3s2)OCO4)cc(OC)c1O [Compound 10, 4-([1,3]Dioxolo[4′,5′:4,5]benzo[1,2-d]thiazol-6-yl)-2,6-dimethoxyphenol] | 53.2 | 0.54 | 96 | – |
| COc1ccc(-c2nc3cc4c(cc3s2)OCO4)cc1O [Compound 4, 5-([1,3]Dioxolo[4′,5′:4,5]benzo[1,2-d]thiazol-6-yl)-2-methoxyphenol] | 63 | 25.5 | > 77 | – |
| COc1cc(-c2nc3cc4c(cc3s2)OCO4)ccc1O [Compound 1, 4-([1,3]Dioxolo[4′,5′:4,5]benzo[1,2-d]thiazol-6-yl)-2-methoxyphenol] | 1.7 | 25.9 | > 77 | – |
| O=C1O[C@H]([C@@H](O)CO)C(O)=C1O [AA, Ascorbic acid, reference compound] | – | – | – | 96 |
| COc1ccc(-c2nc3cc4c(cc3s2)OCO4)cc1OC [Compound 11, 6-(3,4-Dimethoxyphenyl)-[1,3]dioxolo[4′,5′:4,5]benzo[1,2-d]thiazole] | 19.5 | 0.82 | – | – |
| Oc1ccc(-c2nc3cc4c(cc3s2)OCO4)cc1Br [Compound 6, 4-([1,3]Dioxolo[4′,5′:4,5]benzo[1,2-d]thiazol-6-yl)-2-bromophenol] | 27.9 | 17 | – | – |
| Cc1c(C)c2c(c(C)c1O)CCC(C)(C(=O)O)O2 (stereo not drawn) [Trolox, reference compound] | – | – | 99 | – |
| CCOc1cc(-c2nc3cc4c(cc3s2)OCO4)ccc1O [Compound 2, 4-([1,3]Dioxolo[4′,5′:4,5]benzo[1,2-d]thiazol-6-yl)-2-ethoxyphenol] | 50.3 | 14.9 | > 77 | – |
| COc1ccc(-c2nc3cc4c(cc3s2)OCO4)cc1 [Compound 3, 6-(4-Methoxyphenyl)-[1,3]dioxolo[4′,5′:4,5]benzo[1,2-d]thiazole] | 17.2 | 11.1 | – | – |
| Oc1ccc(-c2nc3cc4c(cc3s2)OCO4)cc1O [Compound 8, 4-([1,3]Dioxolo[4′,5′:4,5]benzo[1,2-d]thiazol-6-yl)benzene-1,2-diol] | 18.6 | 4.95 | 99 | 82 |
| Oc1c(Br)cc(-c2nc3cc4c(cc3s2)OCO4)cc1Br [Compound 7, 4-([1,3]Dioxolo[4′,5′:4,5]benzo[1,2-d]thiazol-6-yl)-2,6-dibromophenol] | 29.7 | 17.7 | – | – |
